The results in this text go back to patent publication US9255100B2 (BAYER INTELLECTUAL PROPERTY GMBH, priority 2010, dated 2016).

As usually defined, the IC50 is the concentration that gives 50% inhibition.

SMILES strings stand for the structures.

This experiment deals with T1, N-terminally GST-tagged human full length recombinant Mps-1 kinase (Homo sapiens, UniProt P33981).
T1 construct: N-terminally GST-tagged human full length recombinant Mps-1 kinase; purchased Invitrogen, Karslruhe, Germany PV4071
T1 sequence (P33981 1-857): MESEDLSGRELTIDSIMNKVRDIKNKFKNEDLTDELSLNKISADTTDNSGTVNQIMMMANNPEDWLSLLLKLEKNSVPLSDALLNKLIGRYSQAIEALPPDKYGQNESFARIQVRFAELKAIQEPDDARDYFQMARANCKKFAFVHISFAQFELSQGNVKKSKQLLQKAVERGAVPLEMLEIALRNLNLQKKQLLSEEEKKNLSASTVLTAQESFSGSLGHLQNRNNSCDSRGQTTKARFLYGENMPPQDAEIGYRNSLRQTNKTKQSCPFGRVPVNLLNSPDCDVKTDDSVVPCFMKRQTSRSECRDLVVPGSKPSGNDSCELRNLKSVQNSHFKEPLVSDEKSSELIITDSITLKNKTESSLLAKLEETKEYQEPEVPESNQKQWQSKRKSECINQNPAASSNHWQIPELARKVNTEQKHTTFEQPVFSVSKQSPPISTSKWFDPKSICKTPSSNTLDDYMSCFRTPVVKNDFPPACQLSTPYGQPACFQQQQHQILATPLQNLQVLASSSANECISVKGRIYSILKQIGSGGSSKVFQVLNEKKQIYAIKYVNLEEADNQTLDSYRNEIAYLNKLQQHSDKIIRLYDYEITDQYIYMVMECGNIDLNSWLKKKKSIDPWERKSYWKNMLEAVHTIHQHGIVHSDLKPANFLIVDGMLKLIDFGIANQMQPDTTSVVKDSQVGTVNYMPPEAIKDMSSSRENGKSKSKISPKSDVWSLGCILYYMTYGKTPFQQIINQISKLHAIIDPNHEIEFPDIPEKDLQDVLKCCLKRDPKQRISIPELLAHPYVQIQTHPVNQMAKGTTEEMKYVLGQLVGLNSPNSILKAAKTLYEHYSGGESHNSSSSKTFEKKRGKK
Briefly: Mps-1 kinase assay (TR-FRET). Type of experiment: biochemical. The note with it: Mps1 IC50 [nM], 10 μM ATP, 1 μM peptide substrate, 60 min at 22° C. A digest of the protocol: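 Compounds were tested against recombinant full-length Mps-1 bearing an N-terminal GST tag, about 1 nM final, with a biotinylated amide-capped peptide as substrate. Detection reagents were then bound for 1 h at 22° C and the product read by TR-FRET.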
For orientation: Time-resolved FRET reads energy transfer from a long-lived donor to a nearby acceptor.
For `Cc1cc(-c2cnc3c(NCCC(C)(C)O)cc(Oc4cccc(F)c4)nn23)ccc1C(=O)NC1CC1` [Example 325, N-cyclopropyl-4-{6-(3-fluorophenoxy)-8-[(3-hydroxy-3-methylbutyl)amino]imidazo[1,2-b]pyridazin-3-yl}-2-methyl-benzamide], the half-maximal inhibitory concentration (IC50) was 0.1 nM.

With `CNC(=O)c1ccc(-c2cnc3c(NCC(C)C)cc(Cl)nn23)cc1` [Example 178, 4-{6-Chloro-8-[(2-methylpropyl)amino]imidazo[1,2-b]pyridazin-3-yl}-N-methylbenzamide], the concentration for half-maximal inhibition (IC50) is 172 nM.

Regarding `CCNC(=O)c1ccc(-c2cnc3c(NCCC(F)(F)F)cc(Oc4ccc(O)cc4F)nn23)cc1C` [Example 561, N-ethyl-4-{6-(2-fluoro-4-hydroxyphenoxy)-8-[(3,3,3-trifluoropropyl)amino]imidazo[1,2-b]pyridazin-3-yl}-2-methylbenzamide], the half-inhibitory concentration (IC50) was found to be 0.6 nM. Under `CNC(=O)c1ccc(-c2cnc3c(NCCC(F)(F)F)cc(Oc4ccc(Cl)cc4)nn23)cc1C` [Example 558, 4-{6-(4-chlorophenoxy)-8-[(3,3,3-trifluoropropyl)amino]imidazo[1,2-b]pyridazin-3-yl}-N, 2-dimethylbenzamide] stands 0.3 nM; under `Cc1cc(-c2cnc3c(NCCC(F)(F)F)cc(Nc4ccccc4F)nn23)ccc1C(=O)NC1CC1` [Example 369, N-cyclopropyl-4-{6-[(2-fluorophenyl)amino]-8-[(3,3,3-trifluoropropyl)amino]imidazo[1,2-b]pyridazin-3-yl}-2-methylbenzamide], 0.1 nM; under `Cc1cc(-c2cnc3c(NCC(C)(C)O)cc(Nc4ccccc4)nn23)ccc1C(=O)NC1CC1` [Example 306, 4-{6-anilino-8-[(2-hydroxy-2-methylpropyl)amino]imidazo[1,2-b]pyridazin-3-yl}-N-cyclopropyl-2-methylbenzamide], 0.6 nM.

For `Cc1cc(-c2cnc3c(NCC4CCSCC4)cc(Sc4ccccc4)nn23)ccc1C(=O)NC1CC1` [Example 284, N-cyclopropyl-2-methyl-4-{6-(phenylsulfanyl)-8-[(tetrahydro-2H-thiopyran-4-ylmethyl)amino]imidazo[1,2-b]pyridazin-3-yl}benzamide], the concentration for half-maximal inhibition (IC50) is 0.4 nM. With `COc1c(Oc2cc(NCCC(F)(F)F)c3ncc(-c4ccc(C(=O)NC5CC5)c(C)c4)n3n2)cccc1C(C)C` [Example 418, N-cyclopropyl-4-{6-[2-methoxy-3-(propan-2-yl)phenoxy]-8-[(3,3,3-trifluoropropyl)amino]imidazo[1,2-b]pyridazin-3-yl}-2-methylbenzamide], the IC50 came to 1.2 nM. Consider `Cc1cc(-c2cnc3c(NCC(C)(C)O)cc(Sc4ccc(C(F)(F)F)cc4)nn23)ccc1C(=O)NC1CC1` [Example 242, N-cyclopropyl-4-(8-[(2-hydroxy-2-methylpropyl)amino]-6-{[4-(trifluoromethyl)phenyl]sulfanyl}imidazo[1,2-b]pyridazin-3-yl)-2-methylbenzamide], for which the IC50 came to 3.7 nM. Under `Cc1cc(-c2cnc3c(NCCC(F)(F)F)cc(Oc4cncc(F)c4)nn23)ccc1C(=O)NC1CC1` [Example 464, N-cyclopropyl-4-{6-[(5-fluoropyridin-3-yl)oxy]-8-[(3,3,3-trifluoropropyl)amino]imidazo[1,2-b]pyridazin-3-yl}-2-methylbenzamide] stands 0.1 nM; under `Cc1cc(-c2cnc3c(NCC4CCS(=O)(=O)CC4)cc(Oc4ccccc4F)nn23)ccc1C(=O)NC1CC1` [Example 297, N-cyclopropyl-4-[8-{[(1,1-dioxidotetrahydro-2H-thiopyran-4-yl)methyl]amino}-6-(2-fluorophenoxy)imidazo[1,2-b]pyridazin-3-yl]-2-methylbenzamide], 0.1 nM. In the case of `COc1cc(F)ccc1Nc1cc(NCC(C)(C)O)c2ncc(-c3ccc(C(=O)NC4CC4)c(C)c3)n2n1` [Example 432, N-cyclopropyl-4-{6-[(4-fluoro-2-methoxyphenyl)amino]-8-[(2-hydroxy-2-methylpropyl)amino]imidazo[1,2-b]pyridazin-3-yl}-2-methylbenzamide], the IC50 amounted to 4.6 nM.

Turning to `Cc1cc(F)cc(Oc2cc(NCCC(F)(F)F)c3ncc(-c4ccc(C(=O)NC5CC5)c(C)c4)n3n2)c1` [Example 88, N-cyclopropyl-4-{6-(3-fluoro-5-methylphenoxy)-8-[(3,3,3-trifluoropropyl)amino]imidazo[1,2-b]pyridazin-3-yl}-2-methylbenzamide], the IC50 turned out to be 0.4 nM. With `Cc1cc(-c2cnc3c(NCC4CNC4)cc(-c4ccccc4CO)nn23)ccc1C(=O)NC1CC1` [Example 338, 4-{8-[(azetidin-3-ylmethyl)amino]-6-[2-(hydroxymethyl)phenyl]imidazo[1,2-b]pyridazin-3-yl}-N-cyclo-propyl-2-methylbenzamide] the figure was 83.9 nM; with `CNC(=O)c1ccc(-c2cnc3c(NCCOC)cc(Oc4ccccc4C)nn23)cc1C` [Example 583, 4-{8-[(2-methoxyethyl)amino]-6-(2-methylphenoxy)imidazo[1,2-b]pyridazin-3-yl}-N,2-dimethylbenzamide], 6.9 nM; with `Cc1cc(F)cc(Sc2cc(NCCC(F)(F)F)c3ncc(-c4ccc(C(=O)NC5CC5)c(C)c4)n3n2)c1` [Example 79, N-cyclopropyl-4-{6-[(3-fluoro-5-methylphenyl)sulfanyl]-8-[(3,3,3-trifluoropropyl)amino]imidazo[1,2-b]pyridazin-3-yl}-2-methylbenzamide], 0.7 nM. Under `CCNC(=O)c1ccc(-c2cnc3c(NCCC(F)(F)F)cc(Oc4ccc(Cl)cc4)nn23)cc1C` [Example 559, 4-{6-(4-chlorophenoxy)-8-[(3,3,3-trifluoropropyl)amino]imidazo[1,2-b]pyridazin-3-yl}-N-ethyl-2-methylbenzamide] stands 0.6 nM; under `CNC(=O)c1ccc(-c2cnc3c(NCCC(F)(F)F)cc(Oc4ccc(O)cc4F)nn23)cc1C` [Example 560, 4-{6-(2-fluoro-4-hydroxyphenoxy)-8-[(3,3,3-trifluoropropyl)amino]imidazo[1,2-b]pyridazin-3-yl}-N,2-dimethylbenzamide], 0.1 nM. With `COc1cccc(-c2cc(NCC(C)C)c3ncc(-c4ccc(C(=O)NC5CC5)cc4)n3n2)c1` [Example 125, N-cyclopropyl-4-{6-(3-methoxyphenyl)-8-[(2-methylpropyl)amino]imidazo[1,2-b]pyridazin-3-yl}benzamide] the figure was 3.8 nM. Take `Cc1cc(-c2cnc3c(NCCC(N)=O)cc(Oc4cccc(F)c4)nn23)ccc1C(=O)NC1CC1` [Example 549, 4-{8-[(3-amino-3-oxopropyl)amino]-6-(3-fluorophenoxy)imidazo[1,2-b]pyridazin-3-yl}-N-cyclopropyl-2-methyl-benzamide]: the IC50 is 0.2 nM.

For the compound `COC(=O)c1cc(F)ccc1-c1cc(NCC(C)(C)O)c2ncc(-c3ccc(C(=O)NC4CC4)c(C)c3)n2n1` [Example 279, 2-{3-[4-(cyclopropylcarbamoyl)-3-methylphenyl]-8-[(2-hydroxy-2-methylpropyl)amino]imidazo[1,2-b]pyridazin-6-yl}-5-fluoro-benzoic acid methyl ester], the IC50 was 148 nM. As for `Cc1cc(F)cc(Sc2cc(NCC(C)(C)O)c3ncc(-c4ccc(C(=O)NC5CC5)c(C)c4)n3n2)c1` [Example 67, N-cyclopropyl-4-{6-[(3-fluoro-5-methylphenyl)sulfanyl]-8-[(2-hydroxy-2-methylpropyl)amino]imidazo[1,2-b]pyridazin-3-yl}-2-methylbenzamide], the IC50 came out at 0.1 nM. Under `Cc1cc(-c2cnc3c(NCCC(F)(F)F)cc(Oc4cccc(F)c4)nn23)ccc1C(=O)NC(C)C` [Example 553, 4-{6-(3-fluorophenoxy)-8-[(3,3,3-trifluoropropyl)amino]imidazo[1,2-b]pyridazin-3-yl}-N-isopropyl-2-methylbenzamide] stands 0.7 nM; under `Cc1cc(-c2cnc3c(NC[C@H]4CC[S@@+]([O-])CC4)cc(Oc4cccnc4)nn23)ccc1C(=O)NC1CC1` [Example 296B, N-cyclopropyl-2-methyl-4-[8-({[(cis)-1-oxidotetrahydro-2H-thiopyran-4-yl]methyl}amino)-6-(pyridin-3-yloxy)imidazo[1,2-b]pyridazin-3-yl]benzamide], 0.5 nM. On to `CCN(CC)CCSc1cc(NCCC(F)(F)F)c2ncc(-c3ccc(C(=O)NC4CC4)c(C)c3)n2n1` [Example 210, N-cyclopropyl-4-(6-{[2-(diethylamino)ethyl]sulfanyl}-8-[(3,3,3-trifluoropropyl)amino]imidazo[1,2-b]pyridazin-3-yl)-2-methylbenzamide], for which the IC50 came out at 6.9 nM.
